Measurements: ChEMBL document CHEMBL1201862, “PubChem BioAssay data set” (2004)
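Test compounds were applied to cells in 96-well plates for 48 hours at 5 doses. Here, GI50 denotes the concentration required for 50% inhibition of growth.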 Active and inactive are the calls of the source. Cut-off read from the data, not from the text of the source: active = GI50 up to about 1.1 µM and inactive = higher.

Key:
Test in all cases: inhibition of tumour cell growth, NCI panel, 48 h
A498 = test system: A498
A549 = test system: A549
IGROV-1 = test system: IGROV-1
NCI-H460 = test system: NCI-H460
OVCAR-3 = test system: OVCAR-3
RPMI-8226 = test system: RPMI-8226
SF-295 = test system: SF-295
SK-MEL-2 = test system: SK-MEL-2
SK-MEL-5 = test system: SK-MEL-5
SNB-19 = test system: SNB-19
SNB-75 = test system: SNB-75
SW-620 = test system: SW-620
TK-10 = test system: TK-10
U-251 = test system: U-251
UO-31 = test system: UO-31
LOX IMVI = test system: LOX IMVI
SK-MEL-28 = test system: SK-MEL-28

Structure (SMILES) | GI50 (A498) | GI50 (A549) | GI50 (IGROV-1) | GI50 (NCI-H460) | GI50 (OVCAR-3) | GI50 (RPMI-8226) | GI50 (SF-295) | GI50 (SK-MEL-2) | GI50 (SK-MEL-5) | GI50 (SNB-19) | GI50 (SNB-75) | GI50 (SW-620) | GI50 (TK-10) | GI50 (U-251) | GI50 (UO-31) | GI50 (LOX IMVI) | GI50 (SK-MEL-28)
CN(C)C=[N+]=[N-] | > 100 µM (inactive) | > 100 µM (inactive) | > 100 µM (inactive) | > 100 µM (inactive) | > 100 µM (inactive) | > 100 µM (inactive) | > 100 µM (inactive) | > 100 µM (inactive) | > 100 µM (inactive) | > 100 µM (inactive) | > 100 µM (inactive) | > 100 µM (inactive) | > 100 µM (inactive) | > 100 µM (inactive) | > 100 µM (inactive) | – | –
CCOc1ccc(/C(C=O)=C(\Cl)c2ccc(OC)c(OC)c2)cc1 | > 100 µM (inactive) | – | > 100 µM (inactive) | > 100 µM (inactive) | > 100 µM (inactive) | > 100 µM (inactive) | 79.6 µM (inactive) | > 100 µM (inactive) | 77.3 µM (inactive) | > 100 µM (inactive) | – | > 100 µM (inactive) | > 100 µM (inactive) | > 100 µM (inactive) | > 100 µM (inactive) | > 100 µM (inactive) | > 100 µM (inactive)
O=C(c1ccccc1)[C@H]1Nc2ccc(Cl)cc2[C@H]2CCC[C@@H]12 | – | 42 µM (inactive) | > 100 µM (inactive) | 24.5 µM (inactive) | 27.2 µM (inactive) | 11.9 µM (inactive) | 32.1 µM (inactive) | 19.7 µM (inactive) | 10.3 µM (inactive) | > 100 µM (inactive) | 21.7 µM (inactive) | 27.9 µM (inactive) | 30.6 µM (inactive) | 35.6 µM (inactive) | 17.8 µM (inactive) | 6.85 µM (inactive) | 19.4 µM (inactive)
O=C(/C=N/c1ccccc1S)c1ccco1 | – | 5.11 µM (inactive) | 9.33 µM (inactive) | – | 17.1 µM (inactive) | 14.8 µM (inactive) | 5.08 µM (inactive) | 16.4 µM (inactive) | 17.3 µM (inactive) | 4.74 µM (inactive) | – | 14.7 µM (inactive) | 19.1 µM (inactive) | 5.53 µM (inactive) | 1.86 µM (inactive) | – | 15.8 µM (inactive)
CCOC(=O)C(C)c1c(C(=O)c2ccc(C)nc2)c2ccccc2n1C (configuration not stated) | – | > 100 µM (inactive) | > 100 µM (inactive) | > 100 µM (inactive) | > 100 µM (inactive) | 72.1 µM (inactive) | > 100 µM (inactive) | 82.8 µM (inactive) | > 100 µM (inactive) | – | 33.3 µM (inactive) | > 100 µM (inactive) | > 100 µM (inactive) | – | – | > 100 µM (inactive) | > 100 µM (inactive)
COc1cc2c3c(c1OC)/C(=N/OS(=O)(=O)c1ccc(C)cc1)CC3N(S(=O)(=O)c1ccc(C)cc1)CC2 (configuration not stated) | > 100 µM (inactive) | > 100 µM (inactive) | > 100 µM (inactive) | > 100 µM (inactive) | > 100 µM (inactive) | > 100 µM (inactive) | > 100 µM (inactive) | – | > 100 µM (inactive) | > 100 µM (inactive) | 70.5 µM (inactive) | > 100 µM (inactive) | > 100 µM (inactive) | > 100 µM (inactive) | > 100 µM (inactive) | > 100 µM (inactive) | > 100 µM (inactive)
Cn1cc/c(=N\N=c2/ccn(C)c3ccccc23)c2ccccc21 | 18.5 µM (inactive) | 15.7 µM (inactive) | – | 12.1 µM (inactive) | 11.7 µM (inactive) | – | 16.1 µM (inactive) | – | 15.9 µM (inactive) | 16.9 µM (inactive) | 24.1 µM (inactive) | – | 19.1 µM (inactive) | 15.7 µM (inactive) | 13.2 µM (inactive) | 11.9 µM (inactive) | 15.2 µM (inactive)
CCNC(=O)C(O)C1(O)CCC2[C@@H]3CCC4=CC(=O)C=C[C@]4(C)C3[C@@H](O)C[C@@]21C (some centres not stated) | – | 86.9 µM (inactive) | > 100 µM (inactive) | > 100 µM (inactive) | > 100 µM (inactive) | 22.4 µM (inactive) | > 100 µM (inactive) | > 100 µM (inactive) | – | > 100 µM (inactive) | > 100 µM (inactive) | > 100 µM (inactive) | > 100 µM (inactive) | > 100 µM (inactive) | > 100 µM (inactive) | > 95.1 µM (inactive) | > 100 µM (inactive)
Clc1ccc(C[P+](c2ccccc2)(c2ccccc2)c2ccccc2)c(Cl)c1 | 4.61 µM (inactive) | 4.47 µM (inactive) | 1.87 µM (inactive) | 2.4 µM (inactive) | 2.58 µM (inactive) | 0.463 µM (active) | 3.08 µM (inactive) | 2.18 µM (inactive) | 1.38 µM (inactive) | 3.04 µM (inactive) | 2.77 µM (inactive) | 2.94 µM (inactive) | 6.52 µM (inactive) | 2.49 µM (inactive) | – | 3.28 µM (inactive) | 5.98 µM (inactive)
